Reference: patent publication US6667387B1, “HCV core peptides” (priority 1992, dated 2003)
Ends that are not written are not given here.

Tests used:
[1] = system: antibodies in sera from HCV-seropositive donors; assay: ELISA with HCV antibody-positive sera (biotinylated peptides on streptavidin- or avidin-coated plates, unbiotinylated peptides coated directly); format: binding, human; conditions: for optical density (450 nm): 20-fold dilution; for PEPTIDE ELISA (O.D.): Table 12, biotinylated 20-mers
Procedure: (§1) Where peptides were to be coated directly, stock solutions of the peptides were diluted in sodium carbonate buffer, pH 9.6 and used to coat polystyrene microtiter plates at a peptide concentration of 2 to 5 micrograms per milliliter for 1 hour at 37° C.
(§2) In cases where biotinylated peptides were to be evaluated, plates were first coated with streptavidin in sodium carbonate buffer, pH 9.6 at a concentration of 3 micrograms per milliliter for 1 hour at 37° C. The plates were then washed to remove excess, unbound protein. A working solution of the biotinylated peptide at 1 microgram per milliliter in sodium carbonate buffer was then added to the wells of the microtiter plate and incubated for 1 hours at 37° C.
(§3) Once the plates had been coated with antigen, any remaining free binding sites on the plastic were blocked with casein. After washing, a dilution of the appropriate antisera, usually 1:100, was added to the wells of the plates and incubated for 1 hour at 37° C.
(§4) After washing to remove unbound material, specific antibody binding was detected by incubating the plates with goat anti-human immunoglobulin antibodies conjugated to the enzyme horseradish peroxidase. Following removal of unbound conjugate by washing, a solution containing H2O2 and 3,3′,5,5′-tetramethylbenzidine was added.
(§5) Reactions were stopped after a suitable interval by addition of sulfuric acid. […] Absorbance measurements were made at a wavelength of 450 nanometers and all data are expressed as an optical density value at this wavelength.
The unbiotinylated peptides were adsorbed onto the wells of polystyrene microtiter plates at a concentration of 3 micrograms per milliliter.
The biotinylated peptides were bound at a concentration of 1 microgram per milliliter to streptavidin-coated microtiter plates. Sera known to contain antibodies to these peptides were used for the evaluation and were tested at a 20-fold dilution.
To investigate further the enhanced antibody recognition of biotinylated HCV peptides bound to streptavidin or avidin as compared to direct adsorption on plastic, the influence of peptide coating concentration was investigated. Three peptides (HCV peptides II, XI, and XVI) were coated in concentrations ranging from 10 nanograms per milliliter to 3 micrograms per milliliter in a volume of 200 microliters per microtiter plate well. For direct coating, the unbiotinylated versions of these peptides were used. The biotinylated versions of these peptides were used to coat wells to which streptavidin had previously been adsorbed. Sera known to contain antibodies to these peptides were used at a dilution of 1 to 100 to evaluate the magnitude of antibody binding.
(§6) Unbiotinylated HCV peptide I was coated directly onto the wells of a polystyrene ELISA plate at a concentration of 3 micrograms per milliliter in sodium carbonate buffer, pH 9.6. Biotinylated HCV peptide I was bound to streptavidin-coated wells using a stock solution containing the peptide at a concentration of 1 microgram per milliliter. The resulting plates were then incubated in parallel with a panel of sera from HCV-seropositive donors. […] Two of the sera (8326 and 8244) recognize the biotinylated version of this peptide far better than the unbiotinylated version. The specificity of the antibody reaction is also reflected by the low optical density values obtained for 5 serum samples from uninfected donors (F88, F89, F76, F136, and F6).
To determine how well biotinylated peptides would function in a mixture when bound to streptavidin- or avidin-coated plates, two mixtures were made of the N-terminally biotinylated versions of the HIV-1 peptides TM-HIV-1 (hereabove referred to as 1a.1) and V3-nm (hereabove referred to as 1b.4), the HIV-2 peptide TM-HIV-2 (hereabove referred to as 2a), and the hepatitis C virus peptides II, IX, and XVIII. […]

[2] = ELISA with seronegative / negative control sera (specificity); format: binding, human; conditions: negative serum
Procedure: as §1, §2, §3, §4, §5, §6
To determine how well biotinylated peptides would function in a mixture when bound to streptavidin- or avidin-coated plates, two mixtures were made of the N-terminally biotinylated versions of the HIV-1 peptides TM-HIV-1 (hereabove referred to as 1a.1) and V3-nm (hereabove referred to as 1b.4), the HIV-2 peptide TM-HIV-2 (hereabove referred to as 2a), and the hepatitis C virus peptides II, IX, and XVIII. Mixture A contained each of the six biotinylated peptides at a concentration of 1 microgram per milliliter (6 micrograms per milliliter peptide, total) while in mixture B, each peptide was present at a concentration of 0.1 microgram per milliliter (0.6 microgram per milliliter peptide, total). The individual peptides were coated at a concentration of 1 microgram per milliliter. For purposes of comparison, mixtures A and B were also coated directly onto the wells of a microtiter plate. Samples from HIV-1, HIV-2, and HCV-seropositive donors were tested and compared to sera from seronegative blood donors. A cut-off absorbance value of 0.250 was used to determine whether a reaction was positive or negative. Absorbance values equal or greater than 0.250 were considered positive while absorbance values below this value were considered negative.

## RNTNRRPQDVKFPGGGQIVG [listing 1 of 2 here]
[1]; Table 4D, serum 8241
  optical density (450 nm): 2.066
[1]; Table 4D, serum 8242
  optical density (450 nm): 2.197
[1]; Table 4D, serum 8243
  optical density (450 nm): 2.368
[1]; Table 4D, serum 8247
  optical density (450 nm): 2.398
[1]; Table 4D, serum 8248
  optical density (450 nm): 2.918
[1]; Table 4D, serum 8250
  optical density (450 nm): 2.626
[1]; Table 4D, serum 8271
  optical density (450 nm): 2.066
[1]; Table 4D, serum 8272
  optical density (450 nm): 2.638
[1]; Table 4D, serum 8273
  optical density (450 nm): 2.697
[1]; Table 4D, serum 8274
  optical density (450 nm): 2.905
[1]; Table 4D, serum 8275
  optical density (450 nm): 2.640
[1]; Table 4D, serum 8276
  optical density (450 nm): 2.674
[1]; Table 4D, serum 8277
  optical density (450 nm): 2.327
[1]; serum 0843
  PEPTIDE ELISA (O.D.): 2.368
[1]; serum 8240
  PEPTIDE ELISA (O.D.): 2.918
[1]; serum 8241
  PEPTIDE ELISA (O.D.): 2.066
[1]; serum 8242
  PEPTIDE ELISA (O.D.): 2.197
[1]; serum 8332
  PEPTIDE ELISA (O.D.): 2.054
[1]; serum 8339
  PEPTIDE ELISA (O.D.): 2.765
[1]; serum 8350
  PEPTIDE ELISA (O.D.): 2.135
[1]; serum 8377
  PEPTIDE ELISA (O.D.): 2.368
[1]; serum 8378
  PEPTIDE ELISA (O.D.): 2.369
[1]; serum 8388
  PEPTIDE ELISA (O.D.): 2.463
[2]; Table 4D
  optical density (450 nm): 0.06

## RNTNRRPQDVKFPGGGQIVG [listing 2 of 2 here]
[1]; Table 4D, serum 8241
  optical density (450 nm): 1.219
[1]; Table 4D, serum 8242
  optical density (450 nm): 1.976
[1]; Table 4D, serum 8243
  optical density (450 nm): 1.859
[1]; Table 4D, serum 8247
  optical density (450 nm): 1.072
[1]; Table 4D, serum 8248
  optical density (450 nm): 2.742
[1]; Table 4D, serum 8250
  optical density (450 nm): 2.471
[1]; Table 4D, serum 8271
  optical density (450 nm): 1.471
[1]; Table 4D, serum 8272
  optical density (450 nm): 2.471
[1]; Table 4D, serum 8273
  optical density (450 nm): 1.543
[1]; Table 4D, serum 8274
  optical density (450 nm): 2.503
[1]; Table 4D, serum 8275
  optical density (450 nm): 1.595
[1]; Table 4D, serum 8276
  optical density (450 nm): 1.976
[1]; Table 4D, serum 8277
  optical density (450 nm): 0.735
[2]; Table 4D
  optical density (450 nm): 0.050

## SQHLPYIEQGMMLAEQFKQK
[1]; Table 4A, serum 2
  optical density (450 nm): 1.971
[1]; Table 4A, serum 3
  optical density (450 nm): 2.086
[1]; Table 4A, serum 4
  optical density (450 nm): 1.976
[1]; Table 4A, serum 6
  optical density (450 nm): 0.518
[1]; Table 4A, serum 8
  optical density (450 nm): 2.624
[1]; Table 4A, serum 10
  optical density (450 nm): 2.321
[1]; Table 4A, serum 11
  optical density (450 nm): 2.378
[1]; Table 4A, serum 23
  optical density (450 nm): 2.503
[1]; Table 4A, serum 31
  optical density (450 nm): 2.104
[1]; Table 4A, serum 33
  optical density (450 nm): 1.857
[1]; Table 4A, serum 49
  optical density (450 nm): 2.180
[1]; Table 4A, serum 77
  optical density (450 nm): 0.159
[1]; serum 0843
  PEPTIDE ELISA (O.D.): 2.268
[1]; serum 8240
  PEPTIDE ELISA (O.D.): 0.182
[1]; serum 8241
  PEPTIDE ELISA (O.D.): 2.280
  antibody binding to the 20-mers: very strong
[1]; serum 8242
  PEPTIDE ELISA (O.D.): 1.625
[1]; serum 8332
  PEPTIDE ELISA (O.D.): 0.575
[1]; serum 8339
  PEPTIDE ELISA (O.D.): 0.043
[1]; serum 8350
  PEPTIDE ELISA (O.D.): 0.623
[1]; serum 8377
  PEPTIDE ELISA (O.D.): 2.227
[1]; serum 8378
  PEPTIDE ELISA (O.D.): 1.449
[1]; serum 8388
  PEPTIDE ELISA (O.D.): 1.018
[2]; Table 4A
  optical density (450 nm): 0.095

## Ser-Gln-His-Leu-Pro-Tyr-Ile-Glu-Gln-Gly-Met-Met-Leu-Ala-Glu-Gln-Phe-Lys-Gln-Lys [Biotinylated peptide XI] (SQHLPYIEQGMMLAEQFKQK; also: biotinylated) [probably the unbiotinylated peptide XI, acetylated at the amino terminus, coated directly]
[1]; Table 4A, serum 2
  optical density (450 nm): 0.090
[1]; Table 4A, serum 3
  optical density (450 nm): 0.443
[1]; Table 4A, serum 4
  optical density (450 nm): 0.473
[1]; Table 4A, serum 6
  optical density (450 nm): 0.053
[1]; Table 4A, serum 8
  optical density (450 nm): 1.275
[1]; Table 4A, serum 10
  optical density (450 nm): 0.764
[1]; Table 4A, serum 11
  optical density (450 nm): 0.569
[1]; Table 4A, serum 23
  optical density (450 nm): 0.775
[1]; Table 4A, serum 31
  optical density (450 nm): 0.497
[1]; Table 4A, serum 33
  optical density (450 nm): 0.832
[1]; Table 4A, serum 49
  optical density (450 nm): 0.515
[1]; Table 4A, serum 77
  optical density (450 nm): 0.093
[2]; Table 4A
  optical density (450 nm): 0.053

## TRKTSERSQPRGRRQPIPKV
[1]; Table 4E, serum 8272
  optical density (450 nm): 0.589
[1]; Table 4E, serum 8273
  optical density (450 nm): 0.294
[1]; Table 4E, serum 8274
  optical density (450 nm): 1.820
[1]; Table 4E, serum 8275
  optical density (450 nm): 1.728
[1]; Table 4E, serum 8276
  optical density (450 nm): 2.194
[1]; Table 4E, serum 8277
  optical density (450 nm): 0.770
[1]; Table 4E, serum 8278
  optical density (450 nm): 1.391
[1]; Table 4E, serum 8284
  optical density (450 nm): 0.040
[2]; Table 4E
  optical density (450 nm): 0.047
